Measurements: patent US6737383B1, “Herbicidal oxadiazolidines” (priority 1999, dated 2004)

How the values were obtained:
blackgrass = assay: Test B pre/postemergence blackgrass; format: in vivo, Alopecurus myosuroides
How it was run: (§1)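 Response is a visual 0-to-10 score relative to untreated plants, where 0 means no effect and 10 means complete control, taken twelve to sixteen days after application. Treatments went onto soil at planting and onto foliage of 1- to 4-leaf plants, using a surfactant-containing non-phytotoxic solvent.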

purple nutsedge = assay: Test B pre/postemergence purple nutsedge; format: in vivo, Cyperus rotundus
How it was run: as §1

wheat = assay: Test B pre/postemergence wheat; format: in vivo, Triticum aestivum
How it was run: as §1

sugar beet = assay: Test B pre/postemergence sugar beet; format: in vivo, Beta vulgaris
How it was run: as §1

corn = assay: Test B pre/postemergence corn; format: in vivo, Zea mays
How it was run: as §1

velvetleaf = assay: Test B pre/postemergence velvetleaf; format: in vivo, Abutilon theophrasti
How it was run: as §1

bedstraw = assay: Test B pre/postemergence bedstraw; format: in vivo, Galium aparine
How it was run: as §1

soybean = assay: Test B pre/postemergence soybean; format: in vivo, Glycine max
How it was run: as §1

giant foxtail = assay: Test B pre/postemergence giant foxtail; format: in vivo, Setaria faberii
How it was run: as §1

crabgrass = assay: Test B pre/postemergence crabgrass; format: in vivo, Digitaria sanguinalis
How it was run: as §1

cocklebur = assay: Test B pre/postemergence cocklebur; format: in vivo, Xanthium strumarium
How it was run: as §1

surinam grass = assay: Test B pre/postemergence surinam grass; format: in vivo, Brachiaria decumbens
How it was run: as §1

morningglory = assay: Test B pre/postemergence morningglory; format: in vivo, Ipomoea hederacea
How it was run: as §1

rape = assay: Test B pre/postemergence rape; format: in vivo, Brassica napus
How it was run: as §1

pigweed = assay: Test B pre/postemergence pigweed; format: in vivo, Amaranthus retroflexus
How it was run: as §1

wild oat = assay: Test B pre/postemergence wild oat; format: in vivo, Avena fatua
How it was run: as §1

[1] = Postemergence, Rate 62 g/ha, scale 0 to 10, 0 is no effect, 10 is complete control
[2] = Postemergence, Rate 125 g/ha, scale of 0 to 10 where 0 is no effect and 10 is complete control
[3] = Postemergence, Rate 500 g/ha, scale 0 (no effect) to 10 (complete control)
[4] = Preemergence, Rate 125 g/ha, scale of 0 to 10 where 0 is no effect and 10 is complete control
[5] = Preemergence, Rate 250 g/ha, scale 0 (no effect) to 10 (complete control)
[6] = Rate 62 g/ha, Preemergence, scale 0 to 10
[7] = Rate 250 g/ha, Postemergence, scale 0 to 10, 0 is no effect, 10 is complete control
[8] = Rate 500 g/ha, Preemergence, scale 0 to 10 (0 no effect, 10 complete control)

## CC(C)N(C(=O)n1oc(=O)n(CCN(C)C(=O)c2ccccc2)c1=O)c1ccc(F)cc1F [Compound 762]
blackgrass; [1]
  Plant response rating, Blackgrass: 0
blackgrass; [2]
  Blackgrass plant response rating: 0
blackgrass; [3]
  Blackgrass plant response rating: 0
blackgrass; [4]
  Plant response rating, Blackgrass: 0
blackgrass; [5]
  Blackgrass plant response rating: 7
blackgrass; [6]
  Blackgrass plant response rating: 0
blackgrass; [7]
  Blackgrass plant response rating: 0
blackgrass; [8]
  Blackgrass plant response rating: 9
Purple nutsedge; [1]
  Plant response rating, Nutsedge: 0
Purple nutsedge; [2]
  Nutsedge plant response rating: 0
Purple nutsedge; [3]
  Nutsedge plant response rating: 3
Purple nutsedge; [4]
  Plant response rating, Nutsedge: 0
Purple nutsedge; [5]
  Nutsedge plant response rating: 0
Purple nutsedge; [6]
  Nutsedge plant response rating: 0
Purple nutsedge; [7]
  Nutsedge plant response rating: 0
Purple nutsedge; [8]
  Nutsedge plant response rating: 6
wheat; [1]
  Plant response rating, Wheat: 0
wheat; [3]
  Wheat plant response rating: 0
wheat; [4]
  Plant response rating, Wheat: 0
wheat; [5]
  Wheat plant response rating: 0
wheat; [6]
  Wheat plant response rating: 0
wheat; [7]
  Wheat plant response rating: 0
wheat; [8]
  Wheat plant response rating: 0
Sugar beet; [1]
  Plant response rating, Sugarbeets: 0
Sugar beet; [3]
  Sugarbeets plant response rating: 6
Sugar beet; [4]
  Plant response rating, Sugarbeets: 0
Sugar beet; [5]
  Sugarbeets plant response rating: 4
Sugar beet; [6]
  Sugarbeets plant response rating: 0
Sugar beet; [7]
  Sugarbeets plant response rating: 6
Sugar beet; [8]
  Sugarbeets plant response rating: 4
corn; [1]
  Plant response rating, Corn: 0
corn; [2]
  Corn plant response rating: 0
corn; [3]
  Corn plant response rating: 2
corn; [4]
  Plant response rating, Corn: 0
corn; [5]
  Corn plant response rating: 0
corn; [6]
  Corn plant response rating: 0
corn; [7]
  Corn plant response rating: 2
corn; [8]
  Corn plant response rating: 0
velvetleaf; [1]
  Plant response rating, Velvetleaf: 0
velvetleaf; [3]
  Velvetleaf plant response rating: 3
velvetleaf; [4]
  Plant response rating, Velvetleaf: 0
velvetleaf; [5]
  Velvetleaf plant response rating: 0
velvetleaf; [6]
  Velvetleaf plant response rating: 0
velvetleaf; [7]
  Velvetleaf plant response rating: 3
velvetleaf; [8]
  Velvetleaf plant response rating: 5
bedstraw; [1]
  Plant response rating, Bedstraw: 0
bedstraw; [2]
  Bedstraw plant response rating: 0
bedstraw; [3]
  Bedstraw plant response rating: 0
bedstraw; [4]
  Plant response rating, Bedstraw: 0
bedstraw; [5]
  Bedstraw plant response rating: 0
bedstraw; [6]
  Bedstraw plant response rating: 0
bedstraw; [7]
  Bedstraw plant response rating: 0
bedstraw; [8]
  Bedstraw plant response rating: 0
soybean; [1]
  Plant response rating, Soybean: 2
soybean; [3]
  Soybean plant response rating: 4
soybean; [4]
  Plant response rating, Soybean: 0
soybean; [5]
  Soybean plant response rating: 0
soybean; [6]
  Soybean plant response rating: 0
soybean; [7]
  Soybean plant response rating: 4
soybean; [8]
  Soybean plant response rating: 0
Giant foxtail; [2]
  Giant foxtail plant response rating: 0
Giant foxtail; [4]
  Plant response rating, Giant foxtail: 10
Giant foxtail; [5]
  Giant foxtail plant response rating: 9
Giant foxtail; [6]
  Giant foxtail plant response rating: 5
Giant foxtail; [7]
  Giant foxtail plant response rating: 8
Giant foxtail; [8]
  Giant foxtail plant response rating: 9
crabgrass; [1]
  Plant response rating, Crabgrass: 0
crabgrass; [2]
  Crabgrass plant response rating: 0
crabgrass; [3]
  Crabgrass plant response rating: 8
crabgrass; [4]
  Plant response rating, Crabgrass: 4
crabgrass; [5]
  Crabgrass plant response rating: 4
crabgrass; [7]
  Crabgrass plant response rating: 3
crabgrass; [8]
  Crabgrass plant response rating: 0
cocklebur; [1]
  Plant response rating, Cocklebur: 0
cocklebur; [2]
  Cocklebur plant response rating: 0
cocklebur; [3]
  Cocklebur plant response rating: 0
cocklebur; [4]
  Plant response rating, Cocklebur: 0
cocklebur; [5]
  Cocklebur plant response rating: 0
cocklebur; [6]
  Cocklebur plant response rating: 0
cocklebur; [7]
  Cocklebur plant response rating: 0
cocklebur; [8]
  Cocklebur plant response rating: 0
Surinam grass; [1]
  Plant response rating, B. signalgrass: 0
Surinam grass; [2]
  B. signalgrass plant response rating: 0
Surinam grass; Preemergence, Rate 62 g/ha, scale of 0 to 10 where 0 is no effect and 10 is complete control
  B. signalgrass plant response rating: 0
Surinam grass; [4]
  Plant response rating, B. signalgrass: 0
Surinam grass; [5]
  B. signalgrass plant response rating: 6
Surinam grass; [7]
  B. signalgrass plant response rating: 2
Surinam grass; Rate 500 g/ha, Postemergence, scale 0 to 10, 0 is no effect, 10 is complete control
  B. signalgrass plant response rating: 3
Surinam grass; [8]
  B. signalgrass plant response rating: 9
morningglory; [1]
  Plant response rating, Morningglory: 0
morningglory; [2]
  Morningglory plant response rating: 2
morningglory; [3]
  Morningglory plant response rating: 2
morningglory; [4]
  Plant response rating, Morningglory: 0
morningglory; [5]
  Morningglory plant response rating: 0
morningglory; [6]
  Morningglory plant response rating: 0
morningglory; [7]
  Morningglory plant response rating: 2
morningglory; [8]
  Morningglory plant response rating: 0
rape; [1]
  Plant response rating, Rape: 0
rape; [3]
  Rape plant response rating: 0
rape; [4]
  Plant response rating, Rape: 0
rape; [5]
  Rape plant response rating: 0
rape; [6]
  Rape plant response rating: 0
rape; [7]
  Rape plant response rating: 0
rape; [8]
  Rape plant response rating: 0
pigweed; [1]
  Plant response rating, Redroot pigweed: 0
pigweed; [2]
  Redroot pigweed plant response rating: 0
pigweed; [3]
  Redroot pigweed plant response rating: 6
pigweed; [4]
  Plant response rating, Redroot pigweed: 2
pigweed; [5]
  Redroot pigweed plant response rating: 3
pigweed; [6]
  Redroot pigweed plant response rating: 2
pigweed; [7]
  Redroot pigweed plant response rating: 6
pigweed; [8]
  Redroot pigweed plant response rating: 3
Wild oat; [1]
  Plant response rating, Wild oats: 0
Wild oat; [3]
  Wild oats plant response rating: 2
Wild oat; [4]
  Plant response rating, Wild oats: 0
Wild oat; [5]
  Wild oats plant response rating: 0
Wild oat; [6]
  Wild oats plant response rating: 0
Wild oat; [7]
  Wild oats plant response rating: 0
Wild oat; [8]
  Wild oats plant response rating: 0
